Experiments:
Jurkat [1] = assay: Induction of apoptosis in human Jurkat cells assessed as damaged cells level at 5 uM incubated for 6 hrs by annexin V and Alexa Fluor 488 dye staining based flow cytometry (reference value: 0.07%); format: functional
Jurkat [2] = assay: Induction of apoptosis in human Jurkat cells assessed as necrotic cells level at 5 uM incubated for 24 hrs by annexin V and Alexa Fluor 488 dye staining based flow cytometry (reference value: 2.04%); format: functional
A549 = assay: Cytotoxicity in human A549 cells assessed as inhibition of cell growth incubated for 72 hrs by MTT assay; format: functional, cell-based; settings: A549, 72 h
Jurkat [3] = assay: Induction of apoptosis in human Jurkat cells assessed as necrotic cells level at 5 uM incubated for 24 hrs by annexin V and Alexa Fluor 488 dye staining based flow cytometry (reference value: 2.616%); format: functional
Jurkat [4] = assay: Induction of apoptosis in human Jurkat cells assessed as apoptotic cells level at 5 uM incubated for 24 hrs by annexin V and Alexa Fluor 488 dye staining based flow cytometry (reference value: 2.62%); format: functional
Jurkat [5] = assay: Induction of apoptosis in human Jurkat cells assessed as viable cells level at 5 uM incubated for 24 hrs by annexin V and Alexa Fluor 488 dye staining based flow cytometry (reference value: 95.27%); format: functional
[6] = Cytotoxicity in human […] cells assessed as inhibition of cell growth incubated for 72 hrs by MTT assay; format: functional, cell-based
Jurkat [7] = assay: Induction of apoptosis in human Jurkat cells assessed as damaged cells level at 5 uM incubated for 24 hrs by annexin V and Alexa Fluor 488 dye staining based flow cytometry (reference value: 0.048%); format: functional
MCF7 = assay: Cytotoxicity in human MCF7 cells assessed as inhibition of cell growth incubated for 72 hrs by MTT assay; format: functional, cell-based; settings: MCF7, 72 h
Jurkat [8] = assay: Induction of apoptosis in human Jurkat cells assessed as viable cells level at 5 uM incubated for 24 hrs by annexin V and Alexa Fluor 488 dye staining based flow cytometry (reference value: 92.408%); format: functional
HEK293 = assay: Cytotoxicity in human HEK293 cells assessed as inhibition of cell growth incubated for 72 hrs by MTT assay; format: cell-based
Jurkat [9] = assay: Induction of apoptosis in human Jurkat cells assessed as apoptotic cells level at 5 uM incubated for 24 hrs by annexin V and Alexa Fluor 488 dye staining based flow cytometry (reference value: 4.928%); format: functional
RD = assay: Cytotoxicity in human RD cells assessed as inhibition of cell growth incubated for 72 hrs by MTT assay; format: functional, cell-based
Sclerotinia sclerotiorum = assay: Fungicidal activity against Sclerotinia sclerotiorum grown under potato-saccharose agar assessed as inhibition of mycelial radial growth at 30 mg/l incubated for 72 hrs; format: functional; settings: read-out: GI
Venturia inaequalis = assay: Fungicidal activity against Venturia inaequalis grown under potato-saccharose agar assessed as inhibition of mycelial radial growth at 30 mg/l incubated for 72 hrs; format: functional; settings: read-out: GI
Fusarium verticillioides = assay: Fungicidal activity against Fusarium moniliforme grown under potato-saccharose agar assessed as inhibition of mycelial radial growth at 30 mg/l incubated for 72 hrs; format: functional; settings: read-out: GI
Rhizoctonia solani = assay: Fungicidal activity against Rhizoctonia solani grown under potato-saccharose agar assessed as inhibition of mycelial radial growth at 30 mg/l incubated for 72 hrs; format: functional; settings: read-out: GI
Bipolaris sorokiniana = assay: Fungicidal activity against Bipolaris sorokiniana grown under potato-saccharose agar assessed as inhibition of mycelial radial growth at 30 mg/l incubated for 72 hrs; format: functional; settings: read-out: GI
Fusarium oxysporum = assay: Fungicidal activity against Fusarium oxysporum grown under potato-saccharose agar assessed as inhibition of mycelial radial growth at 30 mg/l incubated for 72 hrs; format: functional; settings: read-out: GI
[10] = Homo sapiens, HEK293, 72 h, read-out: IC50

Row | Structure (SMILES) | Activity (Jurkat [1]) [%] | Activity (Jurkat [2]) [%] | IC50 (A549) [µM] | Necrotic cells (Jurkat [3]) [%] | Apoptotic cells (Jurkat [4]) [%] | Viable cells (Jurkat [5]) [%] | IC50 [6] [µM] | Activity (Jurkat [7]) [%] | IC50 (MCF7) [µM] | Activity (Jurkat [8]) [%] | IC50 (HEK293; [10]) [µM] | Apoptotic cells (Jurkat [9]) [%] | IC50 (RD) [µM] | IC50 (HEK293; hek293) | inhibition of growth at 30 µg/mL (Sclerotinia sclerotiorum) [%] | inhibition of growth at 30 µg/mL (Venturia inaequalis) [%] | inhibition of growth at 30 µg/mL (Fusarium verticillioides) [%] | inhibition of growth at 30 µg/mL (Rhizoctonia solani) [%] | inhibition of growth at 30 µg/mL (Bipolaris sorokiniana) [%] | inhibition of growth at 30 µg/mL (Fusarium oxysporum) [%]
1 | CC[C@@]1(O)C(=O)OCc2c1cc1n(c2=O)Cc2cc3ccccc3nc2-1 [CAMPTOTHECIN] | 0.12 | 3.53 | 8.87 | 26.084 | 32.64 | 63.71 | 12.3 | 0.132 | 13.6 | 37.372 | 54.7 | 36.412 | 4.49 | – | – | – | – | – | – | –
2 | CN1C(=O)N(C)C2C1NC(=S)N2/N=C/C=C/c1ccccc1[N+](=O)[O-] (centres undefined) | 0.06 | 2.16 | 2.72 | 9.164 | 3.18 | 94.6 | 3.76 | 0.088 | 1.76 | 56.128 | – | 34.62 | 32.4 | Not Active | – | – | – | – | – | –
3 | COc1ccccc1/C=C/C=N/N1C(=S)NC2C1N(C)C(=O)N2c1ccccc1 (centres undefined) | 0.14 | 2.39 | > 100 | 16.808 | 3.1 | 94.37 | 0.012 | 0.136 | 0.26 | 56.076 | 0.23 | 26.98 | 0.02 | – | – | – | – | – | – | –
4 | CCN1C(=O)N(CC)C2C1NC(=S)N2/N=C/C=C/c1ccccc1OC (centres undefined) | 0.1 | 2.82 | 0.61 | 12.796 | 3.02 | 94.06 | 17.5 | 0.076 | > 100 | 50.468 | 86.1 | 36.66 | 0.25 | – | 10 | 29 | 37 | 52 | 38 | 21
5 | CCN1C(=O)N(c2ccccc2)C2NC(=S)N(/N=C/C=C/c3ccccc3OC)C21 (centres undefined) | – | – | > 100 | – | – | – | 2.12 | – | 79.1 | – | 57.5 | – | 45.9 | – | 12 | 0 | 19 | 17 | 0 | 1

— ChEMBL document CHEMBL4190345, “Synthesis and biological evaluation of new substituted thioglycolurils, their analogues and derivatives” (Eur J Med Chem, 2017)
